Data published in paper PMC10028264, “Synergistic antifungal interaction of N-(butylcarbamothioyl) benzamide and amphotericin B against Cryptococcus neoformans” (Frontiers in Microbiology, 2023).
Converted amounts (≈) assume the structure as drawn. Where two headings read alike, the source gives them in different places.

Experiments:
[1] = system: C neoformans mature biofilms; set-up: method as in Martinez and Casadevall, 2006; conditions: strains ATCC 24067, ATCC B3501 and H99; ref Martinez and Casadevall, 2006; cited from earlier work
[2] = system: Cryptococcus neoformans; experiment: Broth microdilution MIC and MFC on planktonic cells; type: cell-based
Experimental: Cryptococcus neoformans ATCC 34872 (serotype A), C. neoformans ATCC 66031 (serotype D), and four C. neoformans human isolates (Table 1) belonging to the microbial collection of the Laboratório de Biologia Molecular de Microrganismos of Universidade Estadual de Londrina (UEL), Londrina, Paraná, Brazil, were included in the present study. Yeasts were cultivated in Sabouraud dextrose (SD) agar at 37°C for 48 h and stored at 4°C. For the experiments, five colonies were transferred to SD broth and incubated under the same conditions. Cells were then centrifuged (10,000 × g for 1 min) and resuspended in 0.85% NaCl solution (saline) to achieve turbidity equivalent to 0.5 McFarland standard using the DensiCHEK™ PLUS colorimeter (bioMérieux), which corresponds to approximately 1.0–2.0 × 10^6 colony forming units (CFUs)/mL (standard fungal suspension). The fungal suspension was diluted in a culture medium to achieve the inoculum used in each assay. The study protocol was in accordance with the ethics committee of the UEL. The patients signed a written informed consent form agreeing with this publication (CAAE number 57452322.2.0000.5231).
Minimal inhibitory concentrations (MIC) of BTU-01 and AmB were determined by the broth microdilution method ([CLSI, 2017]). An inoculum (100 μL) of yeast cells (0.5–2.5 × 10^3 CFU/mL) was added into the wells of a U-bottom 96-well microtiter plate (Techno Plastic Products, Switzerland) containing twofold serial dilutions of BTU-01 (1.95–1000.0 μg/mL) and AmB (0.031–16.0 μg/mL) in RPMI-MOPS. Wells containing medium or medium plus DMSO 1% with or without the fungal cells were used as growth and sterility controls, respectively. Candida parapsilosis ATCC 22019 was used as quality control. […] The results of AmB were interpreted using the epidemiological cut-off values proposed in [Espinel-Ingroff et al. (2012)]. To determine the minimal fungicidal concentration (MFC), 10 μL from the wells without visible growth was transferred onto SD agar ([Espinel-Ingroff et al., 2002]), and incubated at 37°C for 48 h. The MFC was determined as the lowest concentration capable of reducing the CFU counts to zero.

[3] = system: human erythrocytes; experiment: Hemolysis assay; type: cell-based; conditions: estimated from the highest concentration tested; all cryptococcal strains
Experimental: The cytotoxicity of BTU-01 (1.95–1000.0 μg/mL) alone and combined with AmB (0.015–16.0 μg/mL) was evaluated on human erythrocytes. Blood from a healthy donor was collected according to the Declaration of Helsinki principles, defibrinated and an erythrocytes suspension (3%) was prepared in 5% glycosylated saline. A total of 100 μL of the erythrocytes suspension was incubated for 3 h at 37°C in wells of U-bottom 96-well polystyrene plates containing different concentrations of the compounds. Wells without the compounds and with 1% Triton X-100 were used as negative and positive hemolysis controls, respectively. The OD of the supernatant was determined at 550 nm with a microtiter plate reader (Synergy HT, BioTek, USA). The percentage of hemolysis was calculated by comparison with the positive control ([Izumi et al., 2012]).
(§1) The concentration of BTU-01 capable of causing 90% of hemolysis/cytotoxicity was used to calculate the selectivity index (SI) using the following equation: SI = CC90/MIC.

[4] = system: HEp-2 CCL-23; experiment: Cytotoxicity, MTT reduction assay; type: cell-based, human; conditions: SI = CC90/MIC, MIC 62.5 μg/mL
Experimental: (§2) The effect of BTU-01 was analyzed on mammalian epithelial cell lines [HEp-2 CCL-23™ (ATCC), LLC-MK2, VERO CCL81 and HeLa (Merck, Brazil)], and the cytotoxicity was evaluated as described by [Longhi et al. (2016)] with modifications. Briefly, cells were cultured in Dulbecco’s Modified Eagle’s medium (DMEM) supplemented with 10% fetal bovine serum (Invitrogen, Brazil), 2 mM L-glutamine, 100 IU/mL penicillin, 100 μg/mL streptomycin, 1% tylosin in flat-bottomed 96-well microtiter plates, in 5% CO2 at 37°C for 48 h. Then, the medium was carefully removed and fresh medium containing twofold serially diluted BTU-01 (0.095–500.0 μg/mL) was added. The cells were incubated for further 24 h under the same conditions. Cell viability was analyzed by the MTT reduction assay according to the manufacturer’s recommendation. The concentration of the compound needed to inhibit the viable cells up to 50 and 90% by regression analysis corresponds to the 50% (CC50) and 90% (CC90) cytotoxic concentrations, respectively.
as §1

[5] = Cytotoxicity, MTT reduction assay; type: cell-based, human; conditions: human, HEp-2 CCL-23 cells, 24 h, MTT
Experimental: as §2, §1

[6] = system: LLC-MK2; experiment: Cytotoxicity, MTT reduction assay; type: cell-based; conditions: SI = CC90/MIC, MIC 62.5 μg/mL
Experimental: as §2, §1

[7] = system: VERO-CCL81; experiment: Cytotoxicity, MTT reduction assay; type: cell-based; conditions: SI = CC90/MIC, MIC 62.5 μg/mL
Experimental: as §2, §1

[8] = Cytotoxicity, MTT reduction assay; type: cell-based; conditions: 24 h, MTT
Experimental: as §2, §1

[9] = system: HeLa; experiment: Cytotoxicity, MTT reduction assay; type: cell-based; conditions: SI = CC90/MIC, MIC 62.5 μg/mL
Experimental: as §2, §1

[10] = Cryptococcus neoformans, 72 h, C. neoformans 1172; planktonic cells; 72 h; read-out: MIC
[11] = Cryptococcus neoformans, 72 h, C. neoformans 90889; planktonic cells; 72 h; read-out: MIC
[12] = Cryptococcus neoformans, 72 h, C. neoformans CN01; planktonic cells; 72 h; read-out: MIC
[13] = Cryptococcus neoformans, 72 h, C. neoformans CN12; planktonic cells; 72 h; read-out: MIC
[14] = Cryptococcus neoformans, ATCC34872, 72 h, C. neoformans ATCC 34872; planktonic cells; 72 h; read-out: MIC
[15] = Cryptococcus neoformans, ATCC66031, 72 h, C. neoformans ATCC 66031; planktonic cells; 72 h; read-out: MIC
[16] = African green monkey, VERO CCL81 cells

In the case of C[C@@H]1[C@H](O)[C@@H](C)/C=C/C=C/C=C/C=C/C=C/C=C/C=C/[C@H](O[C@@H]2O[C@H](C)[C@@H](O)[C@H](N)[C@@H]2O)C[C@@H]2O[C@](O)(C[C@@H](O)C[C@@H](O)[C@H](O)CC[C@@H](O)C[C@@H](O)CC(=O)O[C@H]1C)C[C@H](O)[C@H]2C(=O)O [Amphotericin B, amphotericin B], the “concentration inhibiting metabolic activity of mature biofilms” value [1] is listed as “higher than 2.0 μg/mL”, the MIC ([2]; C. neoformans 1172; planktonic cells; 72 h; listed as AmB) is listed as 0.25 µg/mL (≈ 0.271 µM) and the MFC ([2]; C. neoformans 90889; planktonic cells; 72 h) is listed as 0.5 µg/mL (≈ 0.541 µM). The MIC ([2]; C. neoformans ATCC 34872; planktonic cells; 72 h; listed as AmB) was 0.25 µg/mL (≈ 0.271 µM), the MFC ([2]; C. neoformans CN01; planktonic cells; 72 h) was 0.5 µg/mL (≈ 0.541 µM) and the MFC ([2]; C. neoformans CN12; planktonic cells; 72 h) was 0.5 µg/mL (≈ 0.541 µM). It also gave an MIC [2, 10] of 0.25 µg/mL (≈ 0.271 µM), an MIC [2, 11] of 0.25 µg/mL (≈ 0.271 µM) and an MIC [2, 12] of 0.125 µg/mL (≈ 0.135 µM). For the same compound, the MIC [2, 13] was 0.125 µg/mL (≈ 0.135 µM), the MIC [2, 14] was 0.25 µg/mL (≈ 0.271 µM) and the MFC ([2]; Cryptococcus neoformans, ATCC34872; C. neoformans ATCC 34872; planktonic cells; 72 h; read-out: MFC) was 0.5 µg/mL (≈ 0.541 µM). For the same compound, the MIC [2, 15] was 0.125 µg/mL (≈ 0.135 µM), the MFC ([2]; Cryptococcus neoformans, ATCC66031; C. neoformans ATCC 66031; planktonic cells; 72 h; read-out: MFC) was 0.5 µg/mL (≈ 0.541 µM) and the MFC ([2]; Cryptococcus neoformans; C. neoformans 1172; planktonic cells; 72 h; read-out: MFC) was 0.5 µg/mL (≈ 0.541 µM). The “susceptibility of the strains to the antifungal” value ([2]; epidemiological cut-off values of Espinel-Ingroff et al., 2012; all strains) was “susceptible” and the “MFC, range over all C. neoformans strains” value ([2]; planktonic cells; all six strains) was 0.5 µg/mL (≈ 0.541 µM).

For CCCCNC(=S)NC(=O)c1ccccc1 [BTU-01, N-(butylcarbamothioyl) benzamide], the SI [3] was “greater than 16”, the MFC ([2]; Cryptococcus neoformans, 72 h, C. neoformans 1172; planktonic cells; 72 h; read-out: MFC) was 125 µg/mL (≈ 529 µM) and the MIC [2, 10] was 62.5 µg/mL (≈ 264 µM). It also gave an MFC ([2]; Cryptococcus neoformans, 72 h, C. neoformans 90889; planktonic cells; 72 h; read-out: MFC) of 250 µg/mL (≈ 1060 µM), an MIC [2, 11] of 62.5 µg/mL (≈ 264 µM) and an MFC ([2]; Cryptococcus neoformans, 72 h, C. neoformans CN01; planktonic cells; 72 h; read-out: MFC) of 500 µg/mL (≈ 2120 µM). The MIC [2, 12] was 62.5 µg/mL (≈ 264 µM), the MFC ([2]; Cryptococcus neoformans, 72 h, C. neoformans CN12; planktonic cells; 72 h; read-out: MFC) was over 1000 µg/mL and the MIC [2, 13] was 31.2 µg/mL (≈ 132 µM). It also gave an MFC ([2]; Cryptococcus neoformans, ATCC34872, 72 h, C. neoformans ATCC 34872; planktonic cells; 72 h; read-out: MFC) of 125 µg/mL (≈ 529 µM), an MIC [2, 14] of 62.5 µg/mL (≈ 264 µM) and an MFC ([2]; Cryptococcus neoformans, ATCC66031, 72 h, C. neoformans ATCC 66031; planktonic cells; 72 h; read-out: MFC) of 125 µg/mL (≈ 529 µM). The MIC [2, 15] was 62.5 µg/mL (≈ 264 µM), the “nature of the antifungal effect” value ([2]; from MIC and MFC; all strains) was “fungistatic effect” and the SI [4] was 3.9. It also gave a CC50 at 24 h [5] of 104 µg/mL (≈ 441 µM), a CC90 at 24 h [5] of 245 µg/mL (≈ 1040 µM) and an SI [6] of 2.3. For the same compound, the SI [7] was 3.9, the CC50 at 24 h [8, 16] was 121 µg/mL (≈ 513 µM) and the CC90 at 24 h [8, 16] was 244 µg/mL (≈ 1030 µM). The CC50 at 24 h ([8]; human, HeLa cells) was 83.8 µg/mL (≈ 355 µM), the CC90 at 24 h ([8]; human, HeLa cells) was 154 µg/mL (≈ 650 µM) and the CC50 at 24 h ([8]; rhesus monkey, LLC-MK2 cells) was 71.7 µg/mL (≈ 303 µM). The CC90 at 24 h ([8]; rhesus monkey, LLC-MK2 cells) was 143 µg/mL (≈ 603 µM) and the SI [9] was 2.5.
